Source: patent US5030647A, “Anti-inflammatory thienylbenzylamine compounds” (Boehringer Ingelheim Pharmaceuticals, Inc., priority 1990, dated 1991)
Structures can show the parent of a compound that is named as a salt. Where two headings read alike, the source gives them in different places.

How the values were obtained:
[1] = system: human PMN; experiment: Chemotaxis of human peripheral leukocytes (human PMN chemotaxis, FMLP as chemoattractant); type: cell-based; details: Leukocyte, FMLP 1×10^-8 M; for inhibition at 1 µM: read-out: PERCENT INHIBITION (human PMN chemotaxis) 1 μM; for inhibition at 0.01 µM: read-out: PERCENT INHIBITION (human PMN chemotaxis) 0.01 μm
Method: A) Equal parts of citrated peripheral venous blood drawn from a normal volunteer were mixed with saline containing 6% dextran. The mixture was allowed to sediment for 30-40 minutes in a 50 ml polypropylene centrifuge tube. B) The plasma was decanted and centrifuged at 1500 rpm for 7 minutes and washed with saline. C) The supernatant was decanted and the contaminating red blood cells were eliminated by adding ice cold lysing solution and allowing the cell suspension to stand on ice for 5 minutes. […] E) The tubes were centrifuged at 400g for 30 minutes at room temperature. F) The supernatant was decanted and the PMNs (pelleted on the bottom of the tubes) were washed with saline and with Hanks buffer. The cells were adjusted to a final concentration of 3×10^6 cells/ml in Hanks buffer containing 0.5% BSA. 1) Chemoattractant: serial dilution was prepared of the stocks (10^-3 M) N-Formyl-methionyl-leucylphenylalanine in Hanks buffer and 130 μl of 1×10^-8 M solution was pipetted into the lower bottom chamber. The bottom chamber of the negative control was filled with saline. 2) Placed Millipore membranes to completely cover the wells and allowed the liquid to absorb. 3) Placed on upper chamber and tighten retaining nuts. 1) Sample preparation: Mixed equal volume of sample diluted in Hanks buffer containing […] and cell suspension in a test tube prior to pipetting 200 μl into appropriate duplicate chambers. 2) Incubated chambers at 37° C. for 40-60 minutes. 10) Three to five fields per membrane were counted with the aid of the Image Analyser (optimal 40-10). Special effort was made to select a standard for evaluating the cell monolayer in which the distribution of cells in the field of view is uniform. The number of cells at each […] level beneath the selected monolayer was then counted and the chemotactic index (CI) calculated by multiplying the individual cell count at each level by their corresponding depth of penetration, and taking the sum of these numbers. 11) The results in Table II are recorded as percent inhibition. Percent inhibition by each thienylbenzylamime was calculated as follows: [formula] The CI of the control was determined by conducting the assay with N-formyl-methionyl-leucylphenylalanine (FMLP) alone without any thienlbenzylamine. The background was determined by conducting the assay without any FMLP.

[2] = system: paw swelling; experiment: Reverse passive Arthus reaction, inhibition of paw swelling after oral dosing; type: in vivo; details: Rattus norvegicus, po, 30 mg/kg oral, rats
Method: The reverse passive Arthus reaction is initiated by the interaction of antigen and antibody resulting in the formation of a precipitating immune complex, followed by fixation of complement, accumulation of leukocytes, edema and hemorrhage. The immunopathology of rheumatoid arthritis involves many of the parameters found in this reaction. Test groups (5 rats per group) are dosed orally with compounds one hour prior to the sub-plantar injection into the right hind paw of rabbit anti-ovalbumin antibody (50 μg/0.1 ml). Immediately afterwards, ovalbumin (Sigma, #5503) (5 mg/0.2 ml) is injected i.v. via the tail vein. The right hind paw volume is measured at hourly intervals, from one to four hours after the injection of the immune reactants. The change in paw volume for each animal is calculated by subtracting zero hour paw volume (before injection) from the paw volume at the time of measurement. The mean of these values is calculated for each group. Results are expressed in Table I below as percent inhibition of paw swelling compared to untreated controls.

[3] = Hygroscopicity and stability in air of the hydrochloride salt; type: physicochemical
Method: D. Hydrochloride salt of 5-chloro-2[(2-dimethylaminomethylphenyl) hydroxymethyl]thiophene 1.0 g of the 5-chloro-2-[(2-dimethylaminomethylphenyl)hydroxymethyl]thiophene prepared in C was dissolved in ether. The etheral solution was cooled to -80° C. Upon addition of an ethereal HCl solution a white precipitate was obtained which was immediately filtered under N2 and dried in high vacuum without heating.

[4] = 2 h, 2 hours, read-out: % INHIBITION (of paw swelling) HOUR 2
[5] = 3 h, 3 hours, read-out: % INHIBITION (of paw swelling) HOUR 3
[6] = 4 h, 4 hours, read-out: % INHIBITION (of paw swelling) HOUR 4

CN(C)Cc1ccccc1C(C)(O)c1ccc(Cl)s1 (stereo not shown) [Compound 33, N,N-dimethyl-2-[1-(5-chlorothien-2-yl)-1-hydroxyethyl]benzylamine hydrochloride]
inhibition at 1 µM [1]: 26% | inhibition at 0.01 µM [1]: 26% | inhibition in vivo at 30 mg/kg [2, 4]: 66% | inhibition in vivo at 30 mg/kg [2, 5]: 60% | inhibition in vivo at 30 mg/kg [2, 6]: 40%

CN(CCO)Cc1ccccc1C(O)c1ccc(Cl)s1 (stereo not shown) [Compound 8]
inhibition at 1 µM [1]: 42% | inhibition at 0.01 µM [1]: 35% | inhibition in vivo at 30 mg/kg [2, 4]: 26.9% | inhibition in vivo at 30 mg/kg [2, 5]: 18.2% | inhibition in vivo at 30 mg/kg [2, 6]: 2.8%

CN(C)Cc1ccccc1C(O)c1sccc1Cl (stereo not shown) [Compound 5, 3-chloro-2-[(2-dimethylaminomethylphenyl)hydroxymethyl]thiophene]
inhibition at 1 µM [1]: 34% | inhibition at 0.01 µM [1]: 34% | inhibition in vivo at 30 mg/kg [2, 4]: 35.6% | inhibition in vivo at 30 mg/kg [2, 5]: 13.6% | inhibition in vivo at 30 mg/kg [2, 6]: 32.3%

CN1Cc2ccccc2C1c1ccc(Cl)s1 (stereo not shown) [Compound 14]
inhibition at 1 µM [1]: 51% | inhibition at 0.01 µM [1]: 0% | inhibition in vivo at 30 mg/kg [2, 4]: 64.4% | inhibition in vivo at 30 mg/kg [2, 5]: 49.9% | inhibition in vivo at 30 mg/kg [2, 6]: 17.8%

CN(C)Cc1ccccc1C(O)c1ccsc1Cl (stereo not shown) [Compound 22, 2-chloro-3-[(2-N,N-dimethylaminomethylphenyl)hydroxymethyl]thiophene hydrochloride]
inhibition at 1 µM [1]: 29% | inhibition in vivo at 30 mg/kg [2, 4]: 22% | inhibition in vivo at 30 mg/kg [2, 5]: 0% | inhibition in vivo at 30 mg/kg [2, 6]: 0%

CCN(CC)Cc1ccccc1C(O)c1ccc(Cl)s1 (stereo not shown) [Compound 6, 5-chloro-2-[(2-diethylaminomethylphenyl)hydroxymethyl]thiophene]
inhibition at 1 µM [1]: 25% | inhibition at 0.01 µM [1]: 24% | inhibition in vivo at 30 mg/kg [2, 4]: 46% | inhibition in vivo at 30 mg/kg [2, 5]: 35.9% | inhibition in vivo at 30 mg/kg [2, 6]: 0%

CN(C)Cc1ccccc1C(O)c1cccs1 (stereo not shown) [Compound 3, 2-[(2-Dimethylaminomethylphenyl)hydroxymethyl]thiophene]
inhibition at 1 µM [1]: 39% | inhibition at 0.01 µM [1]: 14% | inhibition in vivo at 30 mg/kg [2, 4]: 43.3% | inhibition in vivo at 30 mg/kg [2, 5]: 22.8% | inhibition in vivo at 30 mg/kg [2, 6]: 0%

CCOC(c1ccc(Cl)s1)c1ccccc1CN(C)C (stereo not shown) [Compound 7, 5-chloro-2-[(2-dimethylaminomethylphenyl)ethoxymethyl]thiophene]
inhibition at 1 µM [1]: 41% | inhibition at 0.01 µM [1]: 37% | inhibition in vivo at 30 mg/kg [2, 4]: 24.2% | inhibition in vivo at 30 mg/kg [2, 5]: 0% | inhibition in vivo at 30 mg/kg [2, 6]: 0%

CN(C)Cc1ccccc1Cc1ccc(Cl)s1 [Compound 12, 5-chloro-2-(2-dimethylaminomethylphenylmethyl)thiophene]
inhibition at 1 µM [1]: 52% | inhibition at 0.01 µM [1]: 54% | inhibition in vivo at 30 mg/kg [2, 4]: 65.8% | inhibition in vivo at 30 mg/kg [2, 5]: 51.1% | inhibition in vivo at 30 mg/kg [2, 6]: 25.5%

CN(C)Cc1ccccc1C(O)c1ccsc1 (stereo not shown) [Compound 21]
inhibition at 1 µM [1]: 54% | inhibition at 0.01 µM [1]: 35% | inhibition in vivo at 30 mg/kg [2, 4]: 39% | inhibition in vivo at 30 mg/kg [2, 5]: 18% | inhibition in vivo at 30 mg/kg [2, 6]: 30%

CN(C)Cc1ccccc1C(=O)c1ccc(Cl)s1 [Compound 11, 5-chloro-2-(2-dimethylaminomethylbenzoyl)thiophene]
inhibition at 1 µM [1]: 33% | inhibition at 0.01 µM [1]: 37% | inhibition in vivo at 30 mg/kg [2, 4]: 40.5% | inhibition in vivo at 30 mg/kg [2, 5]: 18.8% | inhibition in vivo at 30 mg/kg [2, 6]: 1.5%

CN(C)Cc1ccccc1C(O)c1csc(Cl)c1 (stereo not shown) [Compound 24, 5-chloro-3-[(2-N,N-dimethylaminomethylphenyl)hydroxymethyl]thiophene hydrochloride]
inhibition at 1 µM [1]: 19% | inhibition in vivo at 30 mg/kg [2, 4]: 51% | inhibition in vivo at 30 mg/kg [2, 5]: 54% | inhibition in vivo at 30 mg/kg [2, 6]: 53%

Cc1ccc(C(O)c2ccccc2CN(C)C)s1 (stereo not shown) [Compound 4, 2-[(2-dimethylaminomethylphenyl)hydroxymethyl]-5-methyl-thiophene]
inhibition at 1 µM [1]: 55% | inhibition at 0.01 µM [1]: 12% | inhibition in vivo at 30 mg/kg [2, 4]: 43.1% | inhibition in vivo at 30 mg/kg [2, 5]: 19.8% | inhibition in vivo at 30 mg/kg [2, 6]: 4.2%

CN(C)Cc1ccccc1C(O)c1csc(Br)c1 (stereo not shown) [Compound 23, 5-bromo-3-[(2-N,N-dimethylaminomethylphenyl)hydroxymethyl] thiophene hydrochloride]
inhibition at 1 µM [1]: 34% | inhibition in vivo at 30 mg/kg [2, 4]: 72% | inhibition in vivo at 30 mg/kg [2, 5]: 66% | inhibition in vivo at 30 mg/kg [2, 6]: 44%

CN(C)Cc1ccccc1C(O)c1ccc(Cl)s1.Cl (stereo not shown) [Compound 2, 5-chloro-2-[(2-dimethylaminomethylphenyl)hydroxymethyl]thiophene hydrochloride]
inhibition at 1 µM [1]: 76% | inhibition at 0.01 µM [1]: 57% | hygroscopicity [3]: extremely hygroscopic | stability in air ([3]; in air): unstable in air

COC(c1ccc(Cl)s1)c1ccccc1CN(CCO)CCO (stereo not shown) [Compound 9, 5-chloro-2-[2-(N,N-diethanolaminomethyl-phenyl)methoxymethyl]thiophene]
inhibition at 1 µM [1]: 49% | inhibition at 0.01 µM [1]: 23% | inhibition in vivo at 30 mg/kg [2, 4]: 20.8% | inhibition in vivo at 30 mg/kg [2, 5]: 3.6% | inhibition in vivo at 30 mg/kg [2, 6]: 0%
